# Assay results: patent US20080221096A1, “Pyrido[3' ,2':4,5]Furo[3,2-d]Pyrimidine Derivatives” (priority 2005, published 2008)
# Test system: PDE4
# Experiment: PDE4 Assay Procedure ([3H]-cAMP SPA)
# Assay type: biochemical
# Conditions: 15 nM [3H]-cAMP, 1 hour at room temperature, SPA beads
row,Compound,IC50 [nM]
1,"CC1(C)CCc2c(N3CCOCC3)nc3oc4c(NCCN5CCOCC5)ncnc4c3c2C1 [Example 23, 2,2-Dimethyl-5-morpholin-4-yl-N-(2-morpholin-4-ylethyl)-1,2,3,4-tetrahydropyrimido[4′,5′:4,5]furo[2,3-c]isoquinolin-8-amine]",8.9
2,"CCNc1nc2oc3c(NCCN4CCOCC4)ncnc3c2c2c1CCC(C)(C)C2 [Example 31, N^5-Ethyl-2,2-dimethyl-N^8-(2-morpholin-4-ylethyl)-1,2,3,4-tetrahydropyrimido[4′,5′:4,5]furo[2,3-c]isoquinoline-5,8-diamine]",2
3,"CC1(C)Cc2c(c(N3CCOCC3)nc3oc4c(N(CCN5CCOCC5)Cc5cccnc5)ncnc4c23)CO1 [Example 14, 2,2-Dimethyl-5-morpholin-4-yl-N-(2-morpholin-4-ylethyl)-N-(pyridin-3-ylmethyl)-1,4-dihydro-2H-pyrano[4″,3″:4′,5′]pyrido[3′,2′:4,5]furo[3,2-d]pyrimidin-8-amine]",10

# Molecules with a lower IC50, results first:
row,IC50 [nM],Compound
1,1.6,"CCNc1nc2oc3c(NCCCN4CCCC4=O)ncnc3c2c2c1CCC(C)(C)C2 [Example 35, 1-(3-{[5-(Ethylamino)-2,2-dimethyl-1,2,3,4-tetrahydropyrimido[4′,5′:4,5]furo[2,3-c]isoquinolin-8-yl]amino}propyl)pyrrolidin-2-one]"
2,0.8,"CC1(C)CCc2c(N3CCOCC3)nc3oc4c(N(CCO)CCN5CCOCC5)ncnc4c3c2C1 [Example 20, 2-[(2,2-Dimethyl-5-morpholin-4-yl-1,2,3,4-tetrahydropyrimido[4′,5′:4,5]furo[2,3-c]isoquinolin-8-yl)(2-morpholin-4-ylethyl)amino]ethanol]"
3,0.7,"CC1(C)CCc2c(NC3CCC3)nc3oc4c(NCCN5CCOCC5)ncnc4c3c2C1 [Example 46, N^5-Cyclobutyl-2,2-dimethyl-N^8-(2-morpholin-4-ylethyl)-1,2,3,4-tetrahydropyrimido [4′,5′:4,5]furo[2,3-c]isoquinoline-5,8-diamine]"
